{
  "source": "patent US20230085307A1",
  "about": "“PYRIDAZINONE COMPOUND AND HERBICIDE” (NISSAN CHEMICAL CORPORATION, priority 2019, published 2023)",
  "key": {"blackgrass [1]": {"test_system": "blackgrass", "assay": "Test Example 4: herbicidal effect by soil treatment (Table 19, symbol J)", "assay_type": "in vivo, blackgrass (Alopecurus myosuroides)", "details": "amount of applied herbicide 320 g/ha", "in_short": "(§1)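 Emulsion of test compound, water-diluted to predetermined amount, sprayed on soil after sowing (seed depth ~1.5 cm, sterilized diluvial soil). Greenhouse, 25–30° C. Effect graded at three weeks post-spray.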"}, "Italian ryegrass [2]": {"test_system": "Italian ryegrass", "assay": "Test Example 5: herbicidal effect by foliage application, plastic box (Table 20, symbol K)", "assay_type": "in vivo, Italian ryegrass (Lolium multiflorum)", "details": "foliage application, 320 g/ha, evaluated three weeks after application", "in_short": "(§2)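 Post-emergence foliar test in sterilized diluvial soil. Compound applied as water-diluted emulsion at a predetermined rate to 14-day-old plants; evaluation at three weeks.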"}, "wild oat [3]": {"test_system": "wild oat", "assay": "Test Example 5: herbicidal effect by foliage application, plastic box (Table 20, symbol I)", "assay_type": "in vivo, wild oat (Avena fatua)", "details": "foliage application, 320 g/ha, evaluated three weeks after application", "in_short": "as §2"}, "redroot pigweed [4]": {"test_system": "redroot pigweed", "assay": "Test Example 5: herbicidal effect by foliage application, plastic box (Table 20, symbol N)", "assay_type": "in vivo, redroot pigweed (Amaranthus retroflexus)", "details": "foliage application, 320 g/ha, evaluated three weeks after application", "in_short": "as §2"}, "southern crabgrass [5]": {"test_system": "southern crabgrass", "assay": "Test Example 5: herbicidal effect by foliage application, plastic box (Table 20, symbol F)", "assay_type": "in vivo, southern crabgrass (Digitaria ciliaris)", "details": "foliage application, 320 g/ha, evaluated three weeks after application", "in_short": "as §2"}, "Italian ryegrass [6]": {"test_system": "Italian ryegrass", "assay": "Test Example 4: herbicidal effect by soil treatment (Table 19, symbol K)", "assay_type": "in vivo, Italian ryegrass (Lolium multiflorum)", "details": "amount of applied herbicide 320 g/ha", "in_short": "as §1"}, "Chinese sprangletop": {"test_system": "Chinese sprangletop", "assay": "Test Example 3: herbicidal effect by foliage application, Wagner pot (Table 18, symbol D)", "assay_type": "in vivo, chinese sprangletop (Leptochloa chinensis)", "details": "amount of applied herbicide 320 g/ha", "in_short": "(§3)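 Plants were sown in alluvial soil held under 0.1–0.5 cm standing water and grown 14 days in a greenhouse at 25–30 °C. An emulsifiable formulation, water-diluted to the set dose, was then sprayed onto the foliage, and effects were scored three weeks later using previously defined criteria.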"}, "velvetleaf [7]": {"test_system": "velvetleaf", "assay": "Test Example 4: herbicidal effect by soil treatment (Table 19, symbol M)", "assay_type": "in vivo, velvetleaf (Abutilon theophrasti)", "details": "amount of applied herbicide 320 g/ha", "in_short": "as §1"}, "lambsquarters [8]": {"test_system": "lambsquarters", "assay": "Test Example 4: herbicidal effect by soil treatment (Table 19, symbol O)", "assay_type": "in vivo, lambsquarters (Chenopodium album)", "details": "amount of applied herbicide 320 g/ha", "in_short": "as §1"}, "redroot pigweed [9]": {"test_system": "redroot pigweed", "assay": "Test Example 4: herbicidal effect by soil treatment (Table 19, symbol N)", "assay_type": "in vivo, redroot pigweed (Amaranthus retroflexus)", "details": "amount of applied herbicide 320 g/ha", "in_short": "as §1"}, "chickweed [10]": {"test_system": "chickweed", "assay": "Test Example 5: herbicidal effect by foliage application, plastic box (Table 20, symbol P)", "assay_type": "in vivo, common chickweed (Stellaria media)", "details": "foliage application, 320 g/ha, evaluated three weeks after application", "in_short": "as §2"}, "southern crabgrass [11]": {"test_system": "southern crabgrass", "assay": "Test Example 4: herbicidal effect by soil treatment (Table 19, symbol F)", "assay_type": "in vivo, southern crabgrass (Digitaria ciliaris)", "details": "amount of applied herbicide 320 g/ha", "in_short": "as §1"}, "green foxtail [12]": {"test_system": "green foxtail", "assay": "Test Example 4: herbicidal effect by soil treatment (Table 19, symbol G)", "assay_type": "in vivo, green foxtail (Setaria viridis)", "details": "amount of applied herbicide 320 g/ha", "in_short": "as §1"}, "wild oat [13]": {"test_system": "wild oat", "assay": "Test Example 4: herbicidal effect by soil treatment (Table 19, symbol I)", "assay_type": "in vivo, wild oat (Avena fatua)", "details": "amount of applied herbicide 320 g/ha", "in_short": "as §1"}, "rice flat sedge": {"test_system": "rice flat sedge", "assay": "Test Example 3: herbicidal effect by foliage application, Wagner pot (Table 18, symbol E)", "assay_type": "in vivo, rice flat sedge (Cyperus iria)", "details": "amount of applied herbicide 320 g/ha", "in_short": "as §3"}, "green foxtail [14]": {"test_system": "green foxtail", "assay": "Test Example 5: herbicidal effect by foliage application, plastic box (Table 20, symbol G)", "assay_type": "in vivo, green foxtail (Setaria viridis)", "details": "foliage application, 320 g/ha, evaluated three weeks after application", "in_short": "as §2"}, "blackgrass [15]": {"test_system": "blackgrass", "assay": "Test Example 5: herbicidal effect by foliage application, plastic box (Table 20, symbol J)", "assay_type": "in vivo, blackgrass (Alopecurus myosuroides)", "details": "foliage application, 320 g/ha, evaluated three weeks after application", "in_short": "as §2"}, "barnyard grass [16]": {"test_system": "barnyard grass", "assay": "Test Example 3: herbicidal effect by foliage application, Wagner pot (Table 18, symbol H)", "assay_type": "in vivo, barnyard grass (Echinochloa crus-galli)", "details": "amount of applied herbicide 320 g/ha", "in_short": "as §3"}, "barnyard grass [17]": {"test_system": "barnyard grass", "assay": "Test Example 5: herbicidal effect by foliage application, plastic box (Table 20, symbol H)", "assay_type": "in vivo, barnyard grass (Echinochloa crus-galli)", "details": "foliage application, 320 g/ha, evaluated three weeks after application", "in_short": "as §2"}, "persian speedwell [18]": {"test_system": "persian speedwell", "assay": "Test Example 5: herbicidal effect by foliage application, plastic box (Table 20, symbol R)", "assay_type": "in vivo, Persian speedwell (Veronica persica)", "details": "foliage application, 320 g/ha, evaluated three weeks after application", "in_short": "as §2"}, "chickweed [19]": {"test_system": "chickweed", "assay": "Test Example 4: herbicidal effect by soil treatment (Table 19, symbol P)", "assay_type": "in vivo, common chickweed (Stellaria media)", "details": "amount of applied herbicide 320 g/ha", "in_short": "as §1"}, "barnyard grass [20]": {"test_system": "barnyard grass", "assay": "Test Example 4: herbicidal effect by soil treatment (Table 19, symbol H)", "assay_type": "in vivo, barnyard grass (Echinochloa crus-galli)", "details": "amount of applied herbicide 320 g/ha", "in_short": "as §1"}, "lambsquarters [21]": {"test_system": "lambsquarters", "assay": "Test Example 5: herbicidal effect by foliage application, plastic box (Table 20, symbol O)", "assay_type": "in vivo, lambsquarters (Chenopodium album)", "details": "foliage application, 320 g/ha, evaluated three weeks after application", "in_short": "as §2"}, "persian speedwell [22]": {"test_system": "persian speedwell", "assay": "Test Example 4: herbicidal effect by soil treatment (Table 19, symbol R)", "assay_type": "in vivo, Persian speedwell (Veronica persica)", "details": "amount of applied herbicide 320 g/ha", "in_short": "as §1"}, "velvetleaf [23]": {"test_system": "velvetleaf", "assay": "Test Example 5: herbicidal effect by foliage application, plastic box (Table 20, symbol M)", "assay_type": "in vivo, velvetleaf (Abutilon theophrasti)", "details": "foliage application, 320 g/ha, evaluated three weeks after application", "in_short": "as §2"}, "windgrass": {"test_system": "windgrass", "assay": "Test Example 4: herbicidal effect by soil treatment (Table 19, symbol L)", "assay_type": "in vivo, windgrass (Apera spica-venti)", "details": "amount of applied herbicide 320 g/ha", "in_short": "as §1"}},
  "data": [
    {"smiles": "COc1cccc(-c2sc3ccc(F)cc3c2-c2c(O)c(C)nn(C)c2=O)c1", "note": "[2-209]", "values": [
      {"measurement": "J: blackgrass, herbicidal effect rating", "setting": "blackgrass [1]", "value": "0 (Herbicidal rate of 5% or less (almost no effect))"},
      {"measurement": "herbicidal effect on K: Italian ryegrass (criteria 0-5)", "setting": "Italian ryegrass [2]", "value": "4 (Herbicidal rate of 70% or more and less than 90%)"},
      {"measurement": "herbicidal effect on I: wild oat (criteria 0-5)", "setting": "wild oat [3]", "value": "0 (Herbicidal rate of 5% or less (almost no effect))"},
      {"measurement": "herbicidal effect on N: redroot pigweed (criteria 0-5)", "setting": "redroot pigweed [4]", "value": "5 (Herbicidal rate of 90% or more (almost completely withered))"},
      {"measurement": "herbicidal effect on F: southern crabgrass (criteria 0-5)", "setting": "southern crabgrass [5]", "value": "5 (Herbicidal rate of 90% or more (almost completely withered))"},
      {"measurement": "K: Italian ryegrass, herbicidal effect rating", "setting": "Italian ryegrass [6]", "value": "2 (Herbicidal rate of 20% or more and less than 40%)"},
      {"measurement": "herbicidal effect on D: Chinese sprangletop", "setting": "Chinese sprangletop", "value": "4 (Herbicidal rate of 70% or more and less than 90%)"},
      {"measurement": "M: velvetleaf, herbicidal effect rating", "setting": "velvetleaf [7]", "value": "2 (Herbicidal rate of 20% or more and less than 40%)"},
      {"measurement": "O: lambsquarters, herbicidal effect rating", "setting": "lambsquarters [8]", "value": "5 (Herbicidal rate of 90% or more (almost completely withered))"},
      {"measurement": "N: redroot pigweed, herbicidal effect rating", "setting": "redroot pigweed [9]", "value": "4 (Herbicidal rate of 70% or more and less than 90%)"},
      {"measurement": "herbicidal effect on P: chickweed (criteria 0-5)", "setting": "chickweed [10]", "value": "5 (Herbicidal rate of 90% or more (almost completely withered))"},
      {"measurement": "F: southern crabgrass, herbicidal effect rating", "setting": "southern crabgrass [11]", "value": "5 (Herbicidal rate of 90% or more (almost completely withered))"},
      {"measurement": "G: green foxtail, herbicidal effect rating", "setting": "green foxtail [12]", "value": "5 (Herbicidal rate of 90% or more (almost completely withered))"},
      {"measurement": "I: wild oat, herbicidal effect rating", "setting": "wild oat [13]", "value": "0 (Herbicidal rate of 5% or less (almost no effect))"},
      {"measurement": "herbicidal effect on E: rice flat sedge", "setting": "rice flat sedge", "value": "5 (Herbicidal rate of 90% or more (almost completely withered))"},
      {"measurement": "herbicidal effect on G: green foxtail (criteria 0-5)", "setting": "green foxtail [14]", "value": "5 (Herbicidal rate of 90% or more (almost completely withered))"},
      {"measurement": "herbicidal effect on J: blackgrass (criteria 0-5)", "setting": "blackgrass [15]", "value": "4 (Herbicidal rate of 70% or more and less than 90%)"},
      {"measurement": "herbicidal effect on H: barnyard grass", "setting": "barnyard grass [16]", "value": "5 (Herbicidal rate of 90% or more (almost completely withered))"},
      {"measurement": "herbicidal effect on H: barnyard grass (criteria 0-5)", "setting": "barnyard grass [17]", "value": "5 (Herbicidal rate of 90% or more (almost completely withered))"},
      {"measurement": "herbicidal effect on R: persian speedwell (criteria 0-5)", "setting": "persian speedwell [18]", "value": "5 (Herbicidal rate of 90% or more (almost completely withered))"},
      {"measurement": "P: chickweed, herbicidal effect rating", "setting": "chickweed [19]", "value": "4 (Herbicidal rate of 70% or more and less than 90%)"},
      {"measurement": "H: barnyard grass, herbicidal effect rating", "setting": "barnyard grass [20]", "value": "4 (Herbicidal rate of 70% or more and less than 90%)"},
      {"measurement": "herbicidal effect on O: lambsquarters (criteria 0-5)", "setting": "lambsquarters [21]", "value": "4 (Herbicidal rate of 70% or more and less than 90%)"},
      {"measurement": "R: persian speedwell, herbicidal effect rating", "setting": "persian speedwell [22]", "value": "1 (Herbicidal rate of 5% or more and less than 20%)"},
      {"measurement": "herbicidal effect on M: velvetleaf (criteria 0-5)", "setting": "velvetleaf [23]", "value": "4 (Herbicidal rate of 70% or more and less than 90%)"},
      {"measurement": "L: windgrass, herbicidal effect rating", "setting": "windgrass", "value": "0 (Herbicidal rate of 5% or less (almost no effect))"}
    ]}
  ]
}
